In US20140107109A1, “AMINO-DIHYDROTHIAZINE AND AMINO-DIOXIDO DIHYDROTHIAZINE COMPOUNDS AS BETA-SECRETASE ANTAGONISTS AND METHODS OF USE” (Amgen Inc., priority 2012, published 2014):
pIC50: −log10 of the molar value. Where two headings read alike, the source gives them in different places.

Legend:
Cathepsin D (Cat D) = molecular target: T1, Cathepsin D (Cat D) (Homo sapiens, UniProt P07339); experiment: In vitro enzymatic Cathepsin D (Cat D) FRET assay; format: biochemical; conditions: read-out: CatD IC50
T1 construct: Recombinant Cat D was expressed in CHO cells; made in house; host or cells: CHO cells
T1 sequence (P07339 65-412, species assumed): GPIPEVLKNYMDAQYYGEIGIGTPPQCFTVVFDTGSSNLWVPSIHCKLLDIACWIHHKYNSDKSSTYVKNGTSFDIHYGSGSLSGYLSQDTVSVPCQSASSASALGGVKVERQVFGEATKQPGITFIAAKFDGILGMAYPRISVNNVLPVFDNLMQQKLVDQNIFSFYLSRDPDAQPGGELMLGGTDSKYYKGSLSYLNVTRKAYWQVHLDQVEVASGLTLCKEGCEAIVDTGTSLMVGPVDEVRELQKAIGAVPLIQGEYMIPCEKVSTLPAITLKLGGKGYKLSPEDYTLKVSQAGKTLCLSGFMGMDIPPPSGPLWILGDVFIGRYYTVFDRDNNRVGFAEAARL
How it was run: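 FRET read-out: a fluorophore/quencher-labelled peptide substrate is cleaved by 9 nM Cat D (recombinant, CHO-expressed) following a one-hour preincubation with inhibitor dilutions in DMSO. Tris buffer added to neutralize pH ends the reaction before fluorescence measurement.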

[1] = molecular target: Beta Secretase enzyme (BACE1) (Homo sapiens, UniProt P56817); experiment: In vitro enzymatic BACE FRET assay; format: biochemical; conditions: read-out: BACE1 FRET assay IC50
Sequence of Beta Secretase enzyme (BACE1) (P56817 46-501): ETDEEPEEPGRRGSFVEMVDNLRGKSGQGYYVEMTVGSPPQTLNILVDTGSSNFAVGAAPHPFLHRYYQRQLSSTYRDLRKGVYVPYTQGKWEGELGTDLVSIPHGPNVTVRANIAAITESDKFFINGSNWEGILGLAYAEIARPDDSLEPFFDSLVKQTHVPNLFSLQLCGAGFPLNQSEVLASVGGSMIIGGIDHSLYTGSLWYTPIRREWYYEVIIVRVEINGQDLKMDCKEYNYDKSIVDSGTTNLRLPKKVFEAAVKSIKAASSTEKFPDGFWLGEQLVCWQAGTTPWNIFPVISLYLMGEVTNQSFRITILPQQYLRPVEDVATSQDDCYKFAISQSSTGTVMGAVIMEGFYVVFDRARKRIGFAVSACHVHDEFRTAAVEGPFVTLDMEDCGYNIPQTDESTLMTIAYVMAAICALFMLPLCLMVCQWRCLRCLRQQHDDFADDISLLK
How it was run: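 Readout: dequenched fluorescence (ex 488 nm/[…]) after neutralizing with Tris buffer. Reactions, begun by adding 50 nM quenched peptide substrate spanning the BACE cleavage site, were incubated one hour at pH 4.2 in 0.05 M acetate with 100 uM genapol and 10% final DMSO.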

[2] = system: Aβ40 in conditioned medium of cells stably expressing Amyloid Precursor Protein (APP); experiment: In vitro BACE cell-based assay (HEK cell assay), Aβ40 sandwich ELISA
How it was run: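 Aβ40 in conditioned medium was quantified by time-resolved fluorescence sandwich ELISA (pAb40 capture 3 h at 4 °C, biotin-6E10 detection 2 h at 4 °C) after 24 h compound exposure of APP-expressing cells. Doses spanned 10 points from 100 μM or 10 μM top, 0.1% DMSO; IC50 was derived from percent of control.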

[3] = Homo sapiens, HEK293, average IC50, HEK cell assay
[4] = Homo sapiens, HEK293, average IC50, cell assay
[5] = Homo sapiens, HEK293, Aβ40, 24 h incubation

pIC50 (Cathepsin D (Cat D))	pIC50 ([1]; average IC50, enzyme assay)	pIC50 ([2]; average IC50, cell assay)	pIC50 [2, 3]	pIC50 [2, 4]	pIC50 [1]	pIC50 [2, 5]	Molecule
3.88	8.34	6.80					N-(3-((4aR,7aS)-3-amino-2,2-dimethyl-1,1-dioxido-7,7a-dihydro-2H-furo[3,4-b][1,4]thiazin-4a(5H)-yl)-4-fluorophenyl)-3-chloro-1,7-naphthyridin-8-amine, N-(3-((4aS,7aR)-3-amino-2,2-dimethyl-1,1-dioxido-7,7a-dihydro-2H-furo[3,4-b][1,4]thiazin-4a(5H)-yl)-4-fluorophenyl)-3-chloro-1,7-naphthyridin-8-amine [Example 429]
3.66	5.70		5.65				CC1(C)C(N)=N[C@](C)(c2cc(Oc3ncc(C(N)=O)c4sccc34)ccc2F)CS1(=O)=O [Example 292, 4-(3-((3R)-5-amino-3,6,6-trimethyl-1,1-dioxido-3,6-dihydro-2H-1,4-thiazin-3-yl)-4-fluorophenoxy)thieno[3,2-c]pyridine-7-carboxamide]
3.82	7.43			7.46			CC1(C)C(N)=N[C@](C)(c2cc(Oc3ncccc3F)ccc2F)CS1(=O)=O [Example 274, (5R)-5-(2-fluoro-5-((3-fluoro-2-pyridinyl)oxy)phenyl)-2,2,5-trimethyl-5,6-dihydro-2H-1,4-thiazin-3-amine 1,1-dioxide]
2.84	5.53			6.52			Cc1c(CNc2ccc(F)c([C@]3(C)CS(=O)(=O)C(C)(C)C(N)=N3)c2)nc2ccc(Cl)cn12 [Example 152, (R)-5-amino-3-(5-(((6-chloro-3-methylimidazo[1,2-a]pyridin-2-yl)methyl)amino)-2-fluorophenyl)-3,6,6-trimethyl-3,6-dihydro-2H-1,4-thiazine 1,1-dioxide]
3.14	6.05		5.93				CC1(C)C(N)=N[C@](C)(c2cc(Oc3ncc(C(N)=O)cc3F)ccc2F)CS1(=O)=O [Example 300, 6-(3-((3R)-5-amino-3,6,6-trimethyl 1,1-dioxido-3,6-dihydro-2H-1,4-thiazin-3-yl)-4-fluorophenoxy)-5-fluoro-3-pyridinecarboxamide]
< 3.40					7.29	7.22	Cc1nc(C(=O)Nc2ccc(F)c([C@]3(C)CS(=O)(=O)C(C)(C)C(N)=N3)c2)cs1 [Example 27, N-(3-((3R)-5-amino-3,6,6-trimethyl-1,1-dioxido-3,6-dihydro-2H-1,4-thiazin-3-yl)-4-fluorophenyl)-2-methyl-1,3-thiazole-4-carboxamide]
3.01	6.69		6.66				COc1cccnc1Oc1ccc(F)c([C@]2(C)CS(=O)(=O)C(C)(C)C(N)=N2)c1 [Example 297, (5R)-5-(2-fluoro-5-((3-methoxy-2-pyridinyl)oxy)phenyl)-2,2,5-trimethyl-5,6-dihydro-2H-1,4-thiazin-3-amine 1,1-dioxide]
2.90	8.31			8.27			CC1(C)C(N)=N[C@](C)(c2cc(Nc3nccc4cc(OCC#N)cnc34)ccc2F)CS1(=O)=O [Example 420, ((8-((3-((3R)-5-amino-3,6,6-trimethyl-1,1-dioxido-3,6-dihydro-2H-1,4-thiazin-3-yl)-4-fluorophenyl)amino)-1,7-naphthyridin-3-yl)oxy)acetonitrile]
3.20	8.35			7.59			CC1(C)C(N)=N[C@](C)(c2cc(Nc3nccc4cc(OCC(F)(F)F)cnc34)ccc2F)CS1(=O)=O [Example 419, N-(3-((3R)-5-amino-3,6,6-trimethyl-1,1-dioxido-3,6-dihydro-2H-1,4-thiazin-3-yl)-4-fluorophenyl)-3-(2,2,2-trifluoroethoxy)-1,7-naphthyridin-8-amine]
< 3.40	8.79		7.15				C[C@]1(F)C(N)=N[C@](C)(c2cc(NC(=O)c3ccc(C(F)F)cn3)ccc2F)CS1(=O)=O [Example 319, N-(3-((3R,6R)-5-amino-6-fluoro-3,6-dimethyl-1,1-dioxido-3,6-dihydro-2H-1,4-thiazin-3-yl)-4-fluorophenyl)-5-(difluoromethyl)-2-pyridinecarboxamide]
3.41	9.28		9.40				CC1(C)C(N)=N[C@](C)(c2cc(NC(=O)c3cnc(OC(F)F)cn3)ccc2F)CS1(=O)=O [Example 344, N-(3-((3R)-5-amino-3,6,6-trimethyl-1,1-dioxido-3,6-dihydro-2H-1,4-thiazin-3-yl)-4-fluorophenyl)-5-(difluoromethoxy)-2-pyrazinecarboxamide]
3.43	7.43			7.04			CC1(C)C(N)=N[C@](C)(c2cc(Oc3cc(Br)ccn3)ccc2F)CS1(=O)=O [Example 285, (5R)-5-(5-((4-bromo-2-pyridinyl)oxy)-2-fluorophenyl)-2,2,5-trimethyl-5,6-dihydro-2H-1,4-thiazin-3-amine 1,1-dioxide]
3.67	9.08			7.22			CC1(C)C(N)=N[C@](C)(c2cc(Nc3ncc(Br)c4cc(Cl)cnc34)ccc2F)CS1(=O)=O [Example 188, (R)-5-amino-3-(5-((5-bromo-3-chloro-1,7-naphthyridin-8-yl)amino)-2-fluorophenyl)-3,6,6-trimethyl-3,6-dihydro-2H-1,4-thiazine 1,1-dioxide]
3.63	5.33			5.49			CC1(C)C(N)=N[C@](C)(c2cc(C(=O)Nc3ccc(Cl)cc3)ccc2F)CS1(=O)=O [Example 153, (R)-3-(5-amino-3,6,6-trimethyl-1,1-dioxido-3,6-dihydro-2H-1,4-thiazin-3-yl)-N-(4-chlorophenyl)-4-fluorobenzamide]
< 3.40					7.86	6.99	COc1cnc2c(Nc3ccc(F)c([C@]4(C)CS(=O)(=O)[C@@](C)(F)C(N)=N4)c3)nccc2c1 [Example 74, (3R,6R)-5-Amino-6-fluoro-3-(2-fluorophenyl-5-((3-methoxy-1,7-naphthyridin-8-yl)amino)phenyl)-3,6-dimethyl-3,6-dihydro-2H-1,4-thiazine 1,1-dioxide]
3.52					6.72	6.53	Cc1nc2c(Nc3ccc(F)c([C@]4(C)CS(=O)(=O)CC(N)=N4)c3)nccc2s1 [Example 58, N-(3-((3R)-5-amino-3-methyl-1,1-dioxido-3,6-dihydro-2H-1,4-thiazin-3-yl)-4-fluorophenyl)-2-methyl[1,3]thiazolo[4,5-c]pyridin-4-amine]
3.44	8.88	7.11					N-(3-((7R)-9-amino-7-(fluoromethyl)-5,5-dioxido-5-thia-8-azaspiro[3.5]non-8-en-7-yl)-4-fluorophenyl)-3-chloro-1,7-naphthyridin-8-amine, N-(3-((7S)-9-amino-7-(fluoromethyl)-5,5-dioxido-5-thia-8-azaspiro[3.5]non-8-en-7-yl)-4-fluorophenyl)-3-chloro-1,7-naphthyridin-8-amine [Example 243]
3.63	6.58		6.29				Cc1ccc(C#N)c(Oc2ccc(F)c([C@]3(C)CS(=O)(=O)C(C)(C)C(N)=N3)c2)n1 [Example 296, 2-(3-((3R)-5-amino-3,6,6-trimethyl-1,1-dioxido-3,6-dihydro-2H-1,4-thiazin-3-yl)-4-fluorophenoxy)-6-methyl-3-pyridinecarbonitrile]
3.66	6.22			6.06			CC1(C)C(N)=N[C@](C)(c2cc(Oc3ncc(C(F)(F)F)cc3Cl)ccc2F)CS1(=O)=O [Example 267, (5R)-5-(5-((3-chloro-5-(trifluoromethyl)-2-pyridinyl)oxy)-2-fluorophenyl)-2,2,5-trimethyl-5,6-dihydro-2H-1,4-thiazin-3-amine 1,1-dioxide]
4.41	8.94			7.58			C[C@@]1(c2cc(Nc3nccc4cc(Cl)cnc34)ccc2F)CS(=O)(=O)C2(CCC2)C(N)=N1 [Example 116, (R)-9-amino-7-(5-((3-chloro-1,7-naphthyridin-8-yl)amino)-2-fluorophenyl)-7-methyl-5-thia-8-azaspiro[3.5]non-8-ene 5,5-dioxide]
4.44					8.70	8.64	CC1(C)C(N)=N[C@](C)(c2cc(Nc3ncnc4cc(Cl)cnc34)ccc2F)CS1(=O)=O [Example 52, N-(3-((3R)-5-amino-3,6,6-trimethyl-1,1-dioxido-3,6-dihydro-2H-1,4-thiazin-3-yl)-4-fluorophenyl)-7-chloropyrido[3,2-d]pyrimidin-4-amine]
3.43	5.65			6.09			Cc1ccc(Oc2ccc(F)c([C@]3(C)CS(=O)(=O)C(C)(C)C(N)=N3)c2)nc1 [Example 265, (5R)-5-(2-fluoro-5-((5-methyl-2-pyridinyl)oxy)phenyl)-2,2,5-trimethyl-5,6-dihydro-2H-1,4-thiazin-3-amine 1,1-dioxide]

Molecule	pIC50 (Cathepsin D (Cat D))	pIC50 ([1]; average IC50, enzyme assay)	pIC50 ([2]; average IC50, cell assay)	pIC50 [2, 3]	pIC50 [2, 4]	pIC50 [1]	pIC50 [2, 5]
C[C@@]1(c2cc(Br)ccc2F)CS(=O)(=O)[C@]2(C[C@@H](F)C2)C(N)=N1 [Example 118, (2S,4s,7R)-9-amino-7-(5-bromo-2-fluorophenyl)-2-fluoro-7-methyl-5-thia-8-azaspiro[3.5]non-8-ene 5,5-dioxide]	4.51	5.39			< 4.81		
